The text below walks through data of PubChem BioAssay (NCI).

Broadly, the GI50 is the concentration at which growth is held to half of that of the control. The term TGI denotes the concentration at which net growth stops. High values mean less potent growth arrest, low ones more potent growth arrest.

Some test systems named below: BT-549 breast; NCI/ADR-RES ovarian; SNB-19 CNS; NCI-H23 lung; CAKI-1 renal; SNB-75 CNS; LOX IMVI melanoma; MOLT-4 leukemia; OVCAR-8 ovarian; HOP-92 NSCLC.
Holding throughout (test): DTP human tumour cell line panel, 48 h

Structures are written as SMILES. Several values for one entry are separate records, joined by “and”; a condition that tells them apart may be missing. Equal values may be shown once.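 1) Cells in 96-well plates. 2) Compound, 48 h, 5 concentrations. 3) Linear interpolation between surrounding doses. 4) Unreached endpoint = highest concentration. The concentration for 50% growth inhibition is given as GI50. At the TGI there is no net growth.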

`COc1ccc2c(c1)/C(=C\c1c(-c3ccccc3)nc3sccn13)C(=O)N2`: the GI50 in the test with BT-549 breast is 3 µM; with NCI/ADR-RES ovarian, 1.09 µM; in the test with SNB-19 CNS it was > 21.5 µM; in the test with NCI-H23 lung, 1.97 µM; in the test on CAKI-1 renal it was 0.0357 µM; in the test on SNB-75 CNS, 7.16 µM. Also, the GI50 with LOX IMVI melanoma is 6.09 µM; in the test on MOLT-4 leukemia, 12.5 µM; in the test with OVCAR-8 ovarian, 20.9 µM; in the test on HOP-92 NSCLC, > 100 µM. Moreover, the TGI was 13.9 µM with BT-549 breast; 3.27 µM in the test on NCI/ADR-RES ovarian; > 58.3 µM in the test on SNB-19 CNS; 6.85 µM in the test on NCI-H23 lung; 0.37 µM in the test with CAKI-1 renal; 23.5 µM in the test with SNB-75 CNS. The TGI in the test with LOX IMVI melanoma was 22.2 µM; with MOLT-4 leukemia, > 44.5 µM; in the test with OVCAR-8 ovarian, > 72.2 µM; with HOP-92 NSCLC it was > 100 µM.

As to `C[C@]12CC[C@@H]3c4ccc(O)cc4CC[C@H]3[C@@H]1CC(Cc1ccccc1)(Cc1ccccc1)C2=O`, the GI50 with BT-549 breast is 18.8 µM; in the test on NCI/ADR-RES ovarian, 16.5 µM; in the test on SNB-19 CNS, 18 µM; in the test on NCI-H23 lung, 14.3 µM; in the test on CAKI-1 renal, 25.6 µM; in the test with SNB-75 CNS, 16.7 µM. In addition, the GI50 in the test on LOX IMVI melanoma is 12.7 µM; in the test on MOLT-4 leukemia, 9.11 µM; with OVCAR-8 ovarian, 21.5 µM; with HOP-92 NSCLC it was 2.16 µM. Also, the TGI was determined as 38.7 µM in the test on BT-549 breast; 30.7 µM in the test with NCI/ADR-RES ovarian; 34.5 µM with SNB-19 CNS; 28.2 µM with NCI-H23 lung; 45.3 µM in the test on CAKI-1 renal; 34.5 µM in the test with SNB-75 CNS. Also, the TGI with LOX IMVI melanoma was 27.2 µM; in the test with MOLT-4 leukemia, 32.8 µM; in the test with OVCAR-8 ovarian, 61.3 µM; with HOP-92 NSCLC, 9.77 µM.

Consider `CCCCNC(=O)Oc1ccc(/C(=C(\C)c2ccc(OC)cc2)c2ccc(OCCN3CCCCC3)cc2)cc1`, for which the GI50 is 1.48 µM in the test with BT-549 breast; 3.67 µM in the test on NCI/ADR-RES ovarian; 3.95 µM with SNB-19 CNS; 4.06 µM in the test on NCI-H23 lung; 1.94 µM with CAKI-1 renal; 6.91 µM in the test on SNB-75 CNS. Further, the GI50 with LOX IMVI melanoma is 1.83 µM; with MOLT-4 leukemia it was 3.12 µM; in the test on OVCAR-8 ovarian, 3.4 µM; in the test with HOP-92 NSCLC, 1.57 µM. For the same compound, the TGI in the test with BT-549 breast amounted to 2.89 µM; in the test on NCI/ADR-RES ovarian, 19.3 µM; with SNB-19 CNS it was 15.2 µM; in the test with NCI-H23 lung it was 21.4 µM; with CAKI-1 renal, 3.92 µM; with SNB-75 CNS it was 25 µM. Further, the TGI came out at 3.44 µM in the test on LOX IMVI melanoma, 71.9 µM in the test with MOLT-4 leukemia, 11.1 µM in the test with OVCAR-8 ovarian and 3.71 µM with HOP-92 NSCLC.

As for `N[C@@H](Cc1c[nH]c2ccccc12)C(=O)NC1CCN(Cc2c[nH]c3ccc(Cl)cc23)CC1`, the GI50 is 16 µM in the test with BT-549 breast; 65.3 µM with NCI/ADR-RES ovarian; 10.4 µM in the test with SNB-19 CNS; 15.3 µM with NCI-H23 lung; 17.8 µM in the test on CAKI-1 renal; 11.6 µM in the test on SNB-75 CNS. The GI50 with LOX IMVI melanoma was 2.77 µM; in the test with MOLT-4 leukemia, 2.79 µM; with OVCAR-8 ovarian, 15.1 µM; in the test on HOP-92 NSCLC, 3.86 µM. In addition, the TGI was 34.4 µM in the test with BT-549 breast; > 100 µM in the test with NCI/ADR-RES ovarian; 23.9 µM in the test on SNB-19 CNS; 30.7 µM in the test with NCI-H23 lung; 47.4 µM in the test on CAKI-1 renal; 29.1 µM in the test on SNB-75 CNS. The TGI in the test with LOX IMVI melanoma amounted to 8.95 µM; in the test with MOLT-4 leukemia it was 9.6 µM; in the test on OVCAR-8 ovarian it was 29.6 µM; in the test with HOP-92 NSCLC, 17.2 µM.

On to `[Mn+3].[O-][Cl+3]([O-])([O-])O.[O-]c1ccccc1C=NCCN1CC1.[O-]c1ccccc1C=NCCN1CC1`, for which the GI50 with BT-549 breast is 19.4 µM; in the test on NCI/ADR-RES ovarian it was 19.3 µM; in the test on SNB-19 CNS, 44.6 µM; with NCI-H23 lung, 15.4 µM; with CAKI-1 renal, 28.8 µM; in the test with SNB-75 CNS, 25.6 µM. Further, the results for the GI50 in the test with MOLT-4 leukemia, with OVCAR-8 ovarian and with HOP-92 NSCLC were 5.57 µM, 17.8 µM and 94.8 µM, respectively. For the same compound, the TGI was 50.8 µM in the test with BT-549 breast; 49.8 µM with NCI/ADR-RES ovarian; > 100 µM with SNB-19 CNS; 52.8 µM in the test on NCI-H23 lung; 68.1 µM in the test on CAKI-1 renal; 70.1 µM in the test on SNB-75 CNS. In addition, the TGI in the test with MOLT-4 leukemia was 25.4 µM; in the test on OVCAR-8 ovarian it was > 100 µM; in the test on HOP-92 NSCLC it was > 100 µM.

Turning to `Cc1cc(C)c([I+]c2c(C)cc(C)cc2C)c(C)c1`, the GI50 was 0.466 µM with BT-549 breast; 6.54 µM in the test with NCI/ADR-RES ovarian; 0.444 µM in the test on SNB-19 CNS; 0.334 µM in the test on NCI-H23 lung; 1.43 µM in the test with CAKI-1 renal; 0.342 µM in the test with SNB-75 CNS. Besides, the GI50 was 0.286 µM in the test with OVCAR-8 ovarian and 0.267 µM with HOP-92 NSCLC. For the same compound, the TGI with BT-549 breast is 1.59 µM; in the test on NCI/ADR-RES ovarian it was 26.8 µM; in the test with SNB-19 CNS, 1.76 µM; in the test on NCI-H23 lung, 1.83 µM; with CAKI-1 renal, 4.15 µM; with SNB-75 CNS, 1.39 µM. For the same compound, the TGI is 1.09 µM with OVCAR-8 ovarian and 1.53 µM in the test on HOP-92 NSCLC.

Take `COc1ccc(-c2c(NC(=O)Nc3ccc(Cl)c(C(F)(F)F)c3)cnn2-c2ccc(S(N)(=O)=O)cc2)cc1`: the GI50 is 1.81 µM with BT-549 breast; 24.7 µM with NCI/ADR-RES ovarian; 3.85 µM with SNB-19 CNS; 3.14 µM with NCI-H23 lung; 2.3 µM in the test on SNB-75 CNS; 2.75 µM in the test on LOX IMVI melanoma. The GI50 in the test on MOLT-4 leukemia is 2.01 µM; in the test with OVCAR-8 ovarian, 3.39 µM; with HOP-92 NSCLC, 2.02 µM. Further, the TGI in the test on BT-549 breast was 4.4 µM; in the test with NCI/ADR-RES ovarian, > 100 µM; with SNB-19 CNS, 14.7 µM; with NCI-H23 lung, 12.4 µM; in the test with SNB-75 CNS, 13.3 µM; in the test on LOX IMVI melanoma it was 8.36 µM. Also, the values for the TGI in the test with MOLT-4 leukemia, with OVCAR-8 ovarian and in the test on HOP-92 NSCLC were 5.97 µM, 13 µM and 7.32 µM, respectively.

Turning to `Oc1cccc2cccnc12`, the concentration for total growth inhibition (TGI) with BT-549 breast was > 100 µM; in the test on NCI/ADR-RES ovarian it was 35.4 µM and > 100 µM and > 32 µM; with SNB-19 CNS, > 100 µM; in the test on NCI-H23 lung, 18.9 µM and > 100 µM; with CAKI-1 renal, > 100 µM; in the test with SNB-75 CNS, > 100 µM. For the same compound, the TGI is 14.8 µM and > 100 µM with LOX IMVI melanoma; > 100 µM with OVCAR-8 ovarian; > 100 µM in the test on HOP-92 NSCLC. Also, the GI50 with SNB-19 CNS is 23.6 µM and 96.4 µM and 38.9 µM; with NCI-H23 lung it was 2.49 µM and 13.4 µM and 3.93 µM; in the test on SNB-75 CNS it was 44 µM and 18.4 µM; in the test with LOX IMVI melanoma, 1.65 µM and 0.709 µM and 2.29 µM; in the test on OVCAR-8 ovarian, 3.39 µM and 14.6 µM and 2.67 µM.
